Values quoted from earlier work, collected in patent US7456204B2, “Cyclohexylglycine derivatives as dipeptidyl peptidase inhibitors for the treatment or prevention of diabetes” (Merck & Co., Inc., priority 2003, dated 2008).

Tests used:
[1] = tested on: cardiac allograft survival; details: rats; from day 7 to day 14
hematopoiesis = details: mouse, cyclophosphamide-induced neutropenia
DP-IV = molecular target: T1, DP-IV (Homo sapiens, UniProt P27487)
T1 construct: GRF is rapidly degraded in plasma to GRF[3-44]
T1 sequence (P27487 39-766 limits assumed): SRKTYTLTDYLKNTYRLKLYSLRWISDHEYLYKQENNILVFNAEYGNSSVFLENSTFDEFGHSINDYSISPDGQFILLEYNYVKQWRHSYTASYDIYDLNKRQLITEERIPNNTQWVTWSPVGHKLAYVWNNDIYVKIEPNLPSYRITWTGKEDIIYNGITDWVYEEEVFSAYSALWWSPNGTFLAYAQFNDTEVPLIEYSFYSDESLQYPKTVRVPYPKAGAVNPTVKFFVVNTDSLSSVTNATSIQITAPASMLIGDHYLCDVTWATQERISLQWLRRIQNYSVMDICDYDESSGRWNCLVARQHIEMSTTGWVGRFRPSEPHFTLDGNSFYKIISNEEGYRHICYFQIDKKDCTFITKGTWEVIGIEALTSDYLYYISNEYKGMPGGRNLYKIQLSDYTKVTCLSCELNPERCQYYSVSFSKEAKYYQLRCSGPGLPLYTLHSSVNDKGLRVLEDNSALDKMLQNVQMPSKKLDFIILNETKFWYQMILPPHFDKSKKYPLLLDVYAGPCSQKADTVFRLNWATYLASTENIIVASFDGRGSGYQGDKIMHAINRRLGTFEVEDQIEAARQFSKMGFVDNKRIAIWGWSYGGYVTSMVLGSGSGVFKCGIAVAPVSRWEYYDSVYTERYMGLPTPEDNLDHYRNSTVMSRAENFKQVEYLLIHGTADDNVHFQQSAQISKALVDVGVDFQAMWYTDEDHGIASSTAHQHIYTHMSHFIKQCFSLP

In the case of `CC(C)N1CCC(c2ccccc2)(c2ccccc2)CC1` [Prodipine, Pro-Pro-diphenyl-phosphonate], the cardiac allograft survival [1] is listed as “double cardiac allograft survival”.

In the case of `CC(C)[C@H](N)C(=O)N1CCC[C@H]1B(O)O` [Val-Boro-Pro], the hematopoiesis (hematopoiesis) is given as “stimulated hematopoiesis”.

In the case of `CC[C@H](C)[C@H](N)C(=O)N1CCC[C@H]1C(=O)N[C@H](C(=O)O)[C@@H](C)CC` [diprotin A], the “degradation of GRF in plasma to GRF[3-44]” value (DP-IV) is listed as “prevented”.
